For one assay, the target named is gp120/CD4 (Homo sapiens, UniProt P01730). Description: biochemical.
In a further assay the test system is HIV-1 envelope. Particulars: envelope not stated.
For another assay, the system named is X4 HIV-1 envelopes. The following applies: read-out: mean IC50, envelope-mediated fusion, PM1 effector cells, NIH-3T3 CD4/CXCR4 target cells, 2 h at 37°C, medium without FCS, β-galactosidase, 3 experiments.
For assay [1], the system named is primary isolate HIV-1J176 in purified CD4+ T lymphocytes.
Description: Viral stocks were titrated on activated human CD4^+ T cells.
PBMCs were isolated from healthy blood donors by standard Ficoll-HyPaque (Pharmacia, Uppsala, Sweden) density gradient centrifugation from concentrated leukocytes of healthy blood donors and stimulated with 5 µg/ml PHA (Sigma, St. Louis, MO) in complete RPMI medium supplemented with 10% FBS and 50 U/ml recombinant IL-2 (Proleukin; Chiron Corporation, Emeryville, CA) (RPMI-10). After 3 days in culture, CD4^+ T cell population was enriched by negative immunomagnetic selection using Dynabeads M-450 (Invitrogen Carlsbad, CA) coated with monoclonal antibodies to CD8, CD14, CD19 and CD56 (Sigma, St. Louis, MO) according to the manufacturer’s protocol. Infection was carried out by spinoculation for 1.5 hours as previously described [32] with minor modifications. […]
The HIV-1 p24 Ag concentrations in the culture supernatants were determined by enzyme-linked immunosorbent assay (ELISA) at days 4 and 6 post-infection as previously described [68]. […] Bound p24 Ag was then detected using an alkaline phosphatase–conjugated anti-p24 monoclonal antibody (BC 1071-AP; Aalto Bio Reagents) and the AMPAK ELISA amplification system (DAKO A/S, Glostrup, Denmark).
Assay [2] has as its target recombinant soluble CD4 (sCD4) (Homo sapiens, UniProt P01730). Description: biochemical.
Description: (§1) Flat-bottom, 96-well MaxiSorp plates (NUNC, Roskilde, Denmark) were coated with recombinant sCD4 (5 µg/well) or HIV-1BaL gp120 (2 µg/well) in phosphate-buffered saline (PBS) for 18 hrs at 4°C. Bovine serum albumin (BSA) 3% was used for blocking the plates. Antibodies were added in 100 µl PBS+0.05%BSA and incubated for 1 hr at 37°C, after which the plate was washed and incubated for an additional hour at room temperature with the secondary antibody. Peroxidase-conjugated, affinity-purified goat-anti-mouse IgG or goat-anti-human IgG (Dako, Glostrup, Denmark) were used as secondary antibodies. […] The specific signal was calculated by subtracting background values obtained from replicate wells containing all the reagents except the specific ligand for each assay. Binding of mAbs 17b and 48d, directed to CD4-induced epitopes, was performed after preincubation of immobilized gp120 with sCD4 (2 µg/well) in PBS for 20 min at 37°C [65].
The subject of the next assay is SHIV. The following applies: macaques; ref [61]; cited from earlier work. The text has this: Moreover, HD5 may share the mechanism of action of cyanovirin-N, a lectin-like protein that binds to mannose moieties in gp120 and of mAb IgG1b12, with which it competes for the same binding site on CD4 receptor. Both of these virus-targeting entry-inhibitors have been reported to protect macaques from vaginal SHIV ...

Assay [3] concerns the target recombinant human soluble CD4 (human). Description: ELISA; competition: increasing HD5 against anti-CD4 mAb (Leu3a; OKT4) for binding to plastic-immobilised sCD4 (coated at 5 µg/mL); HD5 added before the mAb and kept in the wells. On the technique in general: In an ELISA, binding on a coated surface is turned into a signal by an enzyme label.
Assay [4] concerns the target recombinant HIV-1 gp120 from isolate SF162 (HIV-1 isolate SF162). Description: ELISA; competition: increasing HD5 against mAb IgG1b12 (5 µg/mL) for binding to plastic-immobilised recombinant gp120; PBS + 0.05% BSA, 1 hr at 37°C.
The target in assay [5] is recombinant HIV-1 gp120 from isolate BaL (HIV-1 isolate BaL). Briefly: ELISA; competition: increasing HD5 against the binding of sCD4 and gp120; the text has gp120 on plastic and sCD4 in solution, the legend has sCD4 coated at 5 µg/mL and gp120BaL in solution; HD5 added first and kept in the wells.

Where two headings read alike, the source gives them in different places. Where a SMILES comes first, the peptide text is derived from it. Bridges are numbered along the chain shown (N, C = ends).

Description for gp120/CD4: as §1

As for `CC[C@H](C)[C@@H]1NC(=O)[C@H](CCC(=O)O)NC(=O)[C@@H]2CSSC[C@@H]3NC(=O)[C@H](Cc4ccc(O)cc4)NC(=O)[C@@H](NC(=O)[C@@H](NC(=O)[C@H](C)N)[C@@H](C)O)CSSC[C@@H](C(=O)N[C@@H](CCCNC(=N)N)C(=O)O)NC(=O)[C@H](CSSC[C@H](NC(=O)[C@H](CCCNC(=N)N)NC(=O)CNC(=O)[C@H]([C@@H](C)O)NC(=O)[C@H](CCCNC(=N)N)NC3=O)C(=O)N[C@@H](C)C(=O)N[C@@H]([C@@H](C)O)C(=O)N[C@@H](CCCNC(=N)N)C(=O)N[C@@H](CCC(=O)O)C(=O)N[C@@H](CO)C(=O)N[C@@H](CC(C)C)C(=O)N[C@@H](CO)C(=O)NCC(=O)N[C@@H](C(C)C)C(=O)N2)NC(=O)[C@H](CC(C)C)NC(=O)[C@H](CCCNC(=N)N)NC(=O)[C@H](Cc2ccc(O)cc2)NC(=O)[C@H](CC(C)C)NC(=O)[C@H](CCCNC(=N)N)NC(=O)CNC(=O)[C@H](CO)NC1=O` [HD5] (H-ATCYCRTGRCATRESLSGVCEISGRLYRLCCR-OH; disulfide 3-31, 5-20, 10-30), the IC50 at gp120/CD4 was determined as 900 nM; in the assay with HIV-1 envelope (read-out: IC50, fusion with FBS, with FBS (2.5% vol/vol)), 56000 nM; with HIV-1 envelope (read-out: IC50, fusion without FBS, without FBS), 2300 nM; with X4 HIV-1 envelopes, 2770 ± 380 nM; in assay [1] (primary isolate 1J176 in purified CD4+ T lymphocytes, 1 h) it was 60 nM; in [1] (read-out: half-maximal inhibitory concentration (IC50), HIV-1 replication, HIV-1J176, no serum (RPMI-0.3-ITS: 0.3% human AB serum, ITS, rIL-2 50 U/ml), virions pre-incubated with HD5 1 h at 37°C, spinoculation 1.5 h, p24 ELISA day 6, mean of 3 experiments in triplicate), 400 nM. The IC50 in assay [2] came to 1800 nM.
As to cyanovirin-N, in the assay on SHIV, the “protection from vaginal SHIV-challenge” value is reported as “protect macaques from vaginal SHIV-challenge”.
As for ATCYCRTGRCATRESLSGVCEISGRLYRLCCR [human α-defensin-5], the figures for the IC50 in [3], in [4] and in assay [5] were 1800 nM, 6500 nM and 900 nM, respectively.
